According to PMC2748937 (Nature structural & molecular biology, 2009):

Tests used:
Grb14 RA-PH K252A = molecular target: T1, Grb14 RA-PH K252A (Homo sapiens, UniProt Q14449, K252A); assay: Fluorescence-polarization phosphoinositide binding, Grb14 RA-PH K252A; settings: Grb14 K252A vs WT
T1 sequence (Q14449 106-356 K252A limits assumed): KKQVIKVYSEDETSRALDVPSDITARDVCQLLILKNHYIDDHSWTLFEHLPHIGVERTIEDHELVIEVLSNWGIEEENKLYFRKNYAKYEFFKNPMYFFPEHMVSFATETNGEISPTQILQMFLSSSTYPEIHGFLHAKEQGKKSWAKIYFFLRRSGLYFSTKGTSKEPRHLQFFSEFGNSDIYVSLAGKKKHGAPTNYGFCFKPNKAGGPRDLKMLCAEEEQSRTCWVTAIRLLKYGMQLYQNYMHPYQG

[1] = test system: Grb14 recruitment to the insulin receptor; type: cell-based; settings: co-immunoprecipitation, data not shown
crystal structure = molecular target: the molecule itself; assay: crystal structure

CCCCCC(=O)O[C@H](COC(=O)CCCCCNC(=O)CCC1=C(C)C2=Cc3ccc(-c4ccc(OC)cc4)n3[B-](F)(F)[N+]2=C1C)COP(=O)(O)O[C@H]1[C@H](O)[C@@H](OP(=O)(O)O)[C@H](OP(=O)(O)O)[C@@H](OP(=O)(O)O)[C@H]1O [345P3, PI(3,4,5)P3]
decrease in binding affinity relative to wild-type (Grb14 RA-PH K252A): more than three

COC[C@H]1OC(=O)c2coc3c2[C@@]1(C)C1=C(C3=O)[C@@H]2CCC(=O)[C@@]2(C)C[C@H]1OC(C)=O [wortmannin]
effect on recruitment of Grb14 to the insulin receptor [1]: PI-3K activity is not required for Grb14 recruitment to the receptor

B1: Grb10 RA-PH (residues 106-357 of human Grb10 isoform c (domain or fragment)
chain: GSHMAAAKQDVKVFSEDGTSKVVEILADMTARDLCQLLVYKSHSVDDNSWTLVEHHPHLGLERCLEDHELVVQVESTMASESKFLFRKNYAKYEFFKNPMNFFPEQMVTWSQQSNGSQTQLLQNFLNSSSSPEIQGFLHVKELGKKSWKKLYVCLRRSGLYCSTKGTSAAPRHLQLLADLEDSNIFSLIAGRKQYNAPTDHGLCIKPNKVRNETKELRLLCAEDEQTRTSWMTAFRLLKYGMLLYQNYRIPQQRKA
binding result (crystal structure): binds
